Test results reported in paper PMC7673538 (PLoS Biology, 2020).
Read-outs that look alike come from different tables or passages of the source.

Columns and labels:
EV-A71 = experiment: microbe, parasite or virus in culture; assay type: cell-based, enterovirus A71; conditions: Enterovirus A
CV-B3 [1] = experiment: microbe, parasite or virus in culture; assay type: cell-based, coxsackievirus B3; conditions: for EC50: Enterovirus B
PV-1 = experiment: microbe, parasite or virus in culture; assay type: cell-based, poliovirus 1; conditions: Enterovirus C
CV-A24 = experiment: microbe, parasite or virus in culture; assay type: cell-based, coxsackievirus A24; conditions: Enterovirus C
EV-D68 = experiment: microbe, parasite or virus in culture; assay type: cell-based, enterovirus D68; conditions: Enterovirus D
HRV-A2 = experiment: microbe, parasite or virus in culture; assay type: cell-based, human rhinovirus; conditions: Human rhinovirus sp., HRVA2, HeLa R19, read-out: EC50 HRV-A2
HRV-B14 = experiment: microbe, parasite or virus in culture; assay type: cell-based, human rhinovirus; conditions: Human rhinovirus sp.
CV-B3 [2] = experiment: microbe, parasite or virus in culture; assay type: cell-based, coxsackievirus B3; conditions: Enterovirus B
CV-B3 [3] = experiment: microbe, parasite or virus in culture; assay type: cell-based, coxsackievirus B3; conditions: Enterovirus B, CVB3, BGM
[4] = test system: representative EVs and RVs; assay type: cell-based
in vitro [5] = conditions: human
in vitro [6] = conditions: human; remark: listed apart in the source
in vitro [7] = conditions: monkey
[8] = EVA71, HeLa R19, read-out: EC50 EV-A71
[9] = EVA71, HeLa R19, read-out: EC50 Exp1
[10] = EVA71, HeLa R19, read-out: EC50 Exp2
[11] = CVB3, HeLa R19, read-out: CV-B3 EC50 Average
[12] = CVB3, HeLa R19, read-out: CV-B3 Exp 1 EC50
[13] = CVB3, HeLa R19, read-out: CV-B3 Exp2 EC50
[14] = CVB3, HeLa R19, read-out: Exp 1 EC50 HelaR19
[15] = CVB3, HeLa R19, read-out: Exp 2 EC50 HelaR19
[16] = CVA24, HeLa R19, read-out: EC50 Exp1
[17] = CVA24, HeLa R19, read-out: EC50 Exp2
[18] = EVD68, HeLa R19, read-out: EC50 EV-D68
[19] = EVD68, HeLa R19, read-out: EC50 Exp1
[20] = EVD68, HeLa R19, read-out: EC50 Exp2
[21] = HRVB14, HeLa R19, read-out: EC50 HRV-B14
[22] = CVB3, HAP1, read-out: EC50 Hap1 Average
[23] = CVB3, HAP1, read-out: Exp 1 EC50 Hap1
[24] = CVB3, HAP1, read-out: Exp 2 EC50 Hap1

## Cc1ccc(CN(C(=O)c2ccco2)c2ccccc2)cc1 [Compound 19g, N-(4-Methylbenzyl)-N-phenylfuran-2-carboxamide]
EV-A71; [8]
  EC50: 600 ± 140 nM
EV-A71; [9]
  EC50: 460 nM
EV-A71; [10]
  EC50: 730 nM
CV-B3 [1]
  effect of the substitution on antiviral activity against CV-B3 (in words): only marginally affected antiviral activity
CV-B3 [1]; [11]
  EC50: 880 nM
CV-B3 [1]; [12]
  EC50: 860 nM
CV-B3 [1]; [13]
  EC50: 890 nM
CV-B3 [1]; [14]
  EC50: 1020 nM
CV-B3 [1]; [15]
  EC50: 1690 nM
PV-1; HeLa R19, read-out: EC50 Exp1
  EC50: 16.5 µM
PV-1; HeLa R19, read-out: EC50 Exp2
  EC50: 18.5 µM
PV-1; HeLa R19, read-out: EC50 PV-1
  EC50: 17.5 ± 1 µM
CV-A24; [16]
  EC50: 9.29 µM
CV-A24; [17]
  EC50: 11 µM
EV-D68; EVD68, HeLa R19, read-out: EC50 Average
  EC50: 1480 nM
EV-D68; [18]
  EC50: 1490 ± 80 nM
EV-D68; [19]
  EC50: 1560 nM
EV-D68; [20]
  EC50: 1410 nM
HRV-A2
  EC50: > 30 µM
HRV-B14; HRVB14, HeLa R19, read-out: EC50 Average
  EC50: 12.6 µM
HRV-B14; HRVB14, HeLa R19, read-out: EC50 Exp1
  EC50: 13.6 µM
HRV-B14; HRVB14, HeLa R19, read-out: EC50 Exp2
  EC50: 11.5 µM
HRV-B14; [21]
  EC50: 12.5 ± 1.05 µM
CV-B3 [2]; [22]
  EC50: 2380 nM
CV-B3 [2]; [23]
  EC50: 2080 nM
CV-B3 [2]; [24]
  EC50: 2680 nM
CV-B3 [3]
  EC50: 1700 ± 260 nM
CV-B3 [3]; read-out: EC50 BGM Average
  EC50: 1690 nM
CV-B3 [3]; read-out: Exp 1 EC50 BGM
  EC50: 1950 nM
CV-B3 [3]; read-out: Exp 2 EC50 BGM
  EC50: 1440 nM
[4]
  spectrum of antiviral activity (in words): anti-EV activity but not anti-RV activity
HeLa R19 cells
  cytotoxicity (in words): did not show any cytotoxicity
In vitro [5]; CC50 Average
  CC50: > 30 µM
In vitro [5]; CC50 HelaR19 Average
  CC50: > 100 µM
In vitro [5]; Exp 1 CC50
  CC50: > 30 µM
In vitro [5]; Exp 1 CC50 HelaR19
  CC50: > 100 µM
In vitro [5]; Exp2 CC50
  CC50: > 30 µM
In vitro [5]; Exp 2 CC50 HelaR19
  CC50: > 100 µM
In vitro [6]; CC50
  CC50: > 100 µM
In vitro [6]; CC50 Hap1 Average
  CC50: > 100 µM
In vitro [6]; Exp 1 CC50 Hap1
  CC50: > 100 µM
In vitro [6]; Exp 2 CC50 Hap1
  CC50: > 100 µM
In vitro [7]; CC50
  CC50: > 100 µM
In vitro [7]; CC50 BGM Average
  CC50: > 100 µM
In vitro [7]; Exp 1 CC50 BGM
  CC50: > 100 µM
In vitro [7]; Exp 2 CC50 BGM
  CC50: > 100 µM

## O=C(c1ccco1)N(Cc1ccccc1)c1ccccc1 [Compound 19a, N-Benzyl-N-phenylfuran-2-carboxamide]
EV-A71; [8]
  EC50: 3500 ± 310 nM
EV-A71; [9]
  EC50: 3190 nM
EV-A71; [10]
  EC50: 3800 nM
CV-B3 [1]
  increase or decrease of antiviral activity against CV-B3: less than 3 fold
CV-B3 [1]; [11]
  EC50: 910 nM
CV-B3 [1]; [12]
  EC50: 880 nM
CV-B3 [1]; [13]
  EC50: 940 nM
CV-B3 [1]; CVB3, HeLa R19, read-out: EC50 HelaR19 Average
  EC50: 1620 nM
CV-B3 [1]; [14]
  EC50: 1250 nM
CV-B3 [1]; [15]
  EC50: 1980 nM
PV-1; HeLa R19, read-out: EC50 Exp1
  EC50: 31.5 µM
PV-1; HeLa R19, read-out: EC50 Exp2
  EC50: 33.6 µM
PV-1; HeLa R19, read-out: EC50 PV-1
  EC50: 32.6 ± 1.08 µM
CV-A24; CVA24, HeLa R19, read-out: EC50 CV-A24
  EC50: 21.48 ± 0.03 µM
CV-A24; [16]
  EC50: 21.5 µM
CV-A24; [17]
  EC50: 21.4 µM
EV-D68; [18]
  EC50: 1340 ± 450 nM
EV-D68; [19]
  EC50: 1790 nM
EV-D68; [20]
  EC50: 890 nM
HRV-A2
  EC50: > 30 µM
HRV-B14; [21]
  EC50: > 30 µM
CV-B3 [2]; [22]
  EC50: 730 nM
CV-B3 [2]; [23]
  EC50: 480 nM
CV-B3 [2]; [24]
  EC50: 970 nM
CV-B3 [3]; read-out: EC50 BGM Average
  EC50: 1840 nM
CV-B3 [3]; read-out: Exp 1 EC50 BGM
  EC50: 1900 nM
CV-B3 [3]; read-out: Exp 2 EC50 BGM
  EC50: 1770 nM
[4]
  spectrum of antiviral activity (in words): anti-EV activity but not anti-RV activity
HeLa R19 cells
  cytotoxicity (in words): did not show any cytotoxicity
In vitro [5]; CC50 Average
  CC50: > 30 µM
In vitro [5]; CC50 HelaR19 Average
  CC50: > 100 µM
In vitro [5]; Exp 1 CC50
  CC50: > 30 µM
In vitro [5]; Exp 1 CC50 HelaR19
  CC50: > 100 µM
In vitro [5]; Exp2 CC50
  CC50: > 30 µM
In vitro [5]; Exp 2 CC50 HelaR19
  CC50: > 100 µM
In vitro [6]; CC50
  CC50: > 100 µM
In vitro [6]; CC50 Hap1 Average
  CC50: > 100 µM
In vitro [6]; Exp 1 CC50 Hap1
  CC50: > 100 µM
In vitro [6]; Exp 2 CC50 Hap1
  CC50: > 100 µM
In vitro [7]; CC50
  CC50: > 100 µM
In vitro [7]; CC50 BGM Average
  CC50: > 100 µM
In vitro [7]; Exp 1 CC50 BGM
  CC50: > 100 µM
In vitro [7]; Exp 2 CC50 BGM
  CC50: > 100 µM
